From patent US6737383B1, “Herbicidal oxadiazolidines” (priority 1999, dated 2004)

How the values were obtained:
bedstraw = assay: Test B pre/postemergence bedstraw; type: in vivo, Galium aparine; settings: for Bedstraw plant response rating (0 to 10 scale): 0 is no effect
Method in brief: (§1)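 Test chemicals in a non-phytotoxic solvent mixture with surfactant were sprayed preemergence onto planted seeds and postemergence onto plants 2 to 18 cm tall (1- to 4-leaf stage). After twelve to sixteen days in a greenhouse, injury was visually rated against untreated controls from 0 (no effect) to 10 (complete control).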

morningglory = assay: Test B pre/postemergence morningglory; type: in vivo, Ipomoea hederacea; settings: for Morningglory plant response rating (0 to 10 scale): 0 is no effect
Method in brief: as §1

velvetleaf = assay: Test B pre/postemergence velvetleaf; type: in vivo, Abutilon theophrasti; settings: for Velvetleaf plant response rating (0 to 10 scale): Rate 125 g/ha, 0 is no effect
Method in brief: as §1

wild oat [1] = assay: Test B pre/postemergence wild oat; type: in vivo, Avena fatua; settings: for Wild oats plant response rating (0 to 10 scale): Rate 125 g/ha, 0 is no effect
Method in brief: as §1

winter wheat [2] = assay: Test E winter wheat; type: in vivo, Triticum aestivum; settings: Postemergence; for Plant response rating, Wheat (winter): 0 to 100 scale; for Wheat (winter) plant response rating: Rate 250 g/ha, 0 to 100 scale where 0 is no effect and 100 is complete control
Method in brief: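 For postemergence, application to 1- to 4-leaf plants growing in a 60:40 sandy loam–potting mix substrate. Formulation: non-phytotoxic solvent mixture plus surfactant. Untreated controls served as the reference for the visual rating after ~21–28 days.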

blackgrass = assay: Test E blackgrass; type: in vivo, Alopecurus myosuroides; settings: Preemergence; for Blackgrass plant response rating (0 to 100 scale): Rate 250 g/ha; for Plant response rating, Blackgrass: 0 to 100 scale where 0 is no effect and 100 is complete control
green foxtail = assay: Test E green foxtail; type: in vivo, Setaria viridis; settings: Preemergence; for Green foxtail plant response rating (0 to 100 scale): Rate 250 g/ha; for Plant response rating, Green foxtail: 0 to 100 scale where 0 is no effect and 100 is complete control
Italian ryegrass = assay: Test E Italian ryegrass; type: in vivo, Lolium multiflorum; settings: Preemergence; for I. Ryegrass plant response rating (0 to 100 scale): Rate 250 g/ha; for Plant response rating, I. Ryegrass: 0 to 100 scale where 0 is no effect and 100 is complete control
winter wheat [3] = assay: Test E winter wheat; type: in vivo, Triticum aestivum; settings: Preemergence; for Wheat (winter) plant response rating (0 to 100 scale): Rate 250 g/ha; for Plant response rating, Wheat (winter): 0 to 100 scale where 0 is no effect and 100 is complete control
wild oat [4] = assay: Test E wild oat; type: in vivo, Avena fatua; settings: Preemergence; for Wild oat plant response rating (0 to 100 scale): Rate 250 g/ha; for Plant response rating, Wild oat: 0 to 100 scale where 0 is no effect and 100 is complete control
winter barley = assay: Test E winter barley; type: in vivo, Hordeum vulgare; settings: Preemergence; for Barley (winter) plant response rating (0 to 100 scale): Rate 250 g/ha; for Plant response rating, Barley (winter): 0 to 100 scale where 0 is no effect and 100 is complete control
[5] = Postemergence, Rate 125 g/ha, scale of 0 to 10 where 0 is no effect and 10 is complete control
[6] = Preemergence, Rate 62 g/ha, scale of 0 to 10 where 0 is no effect and 10 is complete control
[7] = Preemergence, Rate 125 g/ha, 10 is complete control
[8] = Preemergence, Rate 250 g/ha, scale 0 to 10, 0 is no effect, 10 is complete control
[9] = Preemergence, Rate 500 g/ha, scale 0 to 10 (0 no effect, 10 complete control)
[10] = Rate 62 g/ha, Postemergence, scale of 0 to 10 where 0 is no effect and 10 is complete control
[11] = Rate 250 g/ha, Postemergence, scale 0 to 10, 0 is no effect, 10 is complete control
[12] = Rate 500 g/ha, Postemergence, scale 0 to 10
[13] = Preemergence, 10 is complete control
[14] = Rate 1000 g/ha, 0 is no effect and 100 is complete control
[15] = Rate 500 g/ha, 0 no effect, 100 complete control

CC1CCCCC1n1c(=O)on(C(=O)N(c2ccccc2)C(C)C)c1=O (centres unmarked) [Compound 162]
Bedstraw plant response rating (bedstraw; [5]): 2
Bedstraw plant response rating (bedstraw; [6]): 0
Bedstraw plant response rating (0 to 10 scale) (bedstraw; [7]): 0
Bedstraw plant response rating (bedstraw; [8]): 0
Bedstraw plant response rating (bedstraw; [9]): 0
Bedstraw plant response rating (bedstraw; [10]): 0
Plant response rating, Bedstraw (bedstraw; [11]): 3
Bedstraw plant response rating (bedstraw; [12]): 6
Morningglory plant response rating (morningglory; [5]): 6
Morningglory plant response rating (morningglory; [6]): 0
Morningglory plant response rating (0 to 10 scale) (morningglory; [7]): 0
Morningglory plant response rating (morningglory; [8]): 0
Morningglory plant response rating (morningglory; [9]): 0
Morningglory plant response rating (morningglory; [10]): 6
Plant response rating, Morningglory (morningglory; [11]): 10
Morningglory plant response rating (morningglory; [12]): 10
Velvetleaf plant response rating (velvetleaf; [6]): 0
Velvetleaf plant response rating (0 to 10 scale) (velvetleaf; [13]): 0
Velvetleaf plant response rating (velvetleaf; [8]): 0
Velvetleaf plant response rating (velvetleaf; [9]): 0
Plant response rating, Velvetleaf (velvetleaf; [11]): 4
Velvetleaf plant response rating (velvetleaf; [12]): 4
Wild oats plant response rating (wild oat [1]; [6]): 0
Wild oats plant response rating (0 to 10 scale) (wild oat [1]; [13]): 0
Wild oats plant response rating (wild oat [1]; [8]): 2
Wild oats plant response rating (wild oat [1]; [9]): 5
Plant response rating, Wild oats (wild oat [1]; [11]): 0
Wild oats plant response rating (wild oat [1]; [12]): 4
Plant response rating, Wheat (winter) (winter wheat [2]; [14]): 50
Plant response rating, Wheat (winter) (winter wheat [2]; [15]): 40
Wheat (winter) plant response rating (winter wheat [2]): 30
Blackgrass plant response rating (0 to 100 scale) (blackgrass): 55
Plant response rating, Blackgrass (blackgrass; Rate 500 g/ha): 60
Plant response rating, Blackgrass (blackgrass; Rate 1000 g/ha): 55
Green foxtail plant response rating (0 to 100 scale) (green foxtail): 60
Plant response rating, Green foxtail (green foxtail; Rate 500 g/ha): 65
Plant response rating, Green foxtail (green foxtail; Rate 1000 g/ha): 85
I. Ryegrass plant response rating (0 to 100 scale) (Italian ryegrass): 50
Plant response rating, I. Ryegrass (Italian ryegrass; Rate 500 g/ha): 65
Plant response rating, I. Ryegrass (Italian ryegrass; Rate 1000 g/ha): 70
Wheat (winter) plant response rating (0 to 100 scale) (winter wheat [3]): 30
Plant response rating, Wheat (winter) (winter wheat [3]; Rate 500 g/ha): 15
Plant response rating, Wheat (winter) (winter wheat [3]; Rate 1000 g/ha): 40
Wild oat plant response rating (0 to 100 scale) (wild oat [4]): 50
Plant response rating, Wild oat (wild oat [4]; Rate 500 g/ha): 50
Plant response rating, Wild oat (wild oat [4]; Rate 1000 g/ha): 60
Barley (winter) plant response rating (0 to 100 scale) (winter barley): 30
Plant response rating, Barley (winter) (winter barley; Rate 500 g/ha): 30
Plant response rating, Barley (winter) (winter barley; Rate 1000 g/ha): 40

CC(C)N(Cc1ccccc1)C(=O)n1oc(=O)n(C(C)C)c1=O [Compound 165]
Bedstraw plant response rating (bedstraw; [5]): 0
Bedstraw plant response rating (bedstraw; [6]): 0
Bedstraw plant response rating (0 to 10 scale) (bedstraw; [7]): 1
Bedstraw plant response rating (bedstraw; [8]): 3
Bedstraw plant response rating (bedstraw; [9]): 4
Bedstraw plant response rating (bedstraw; [10]): 0
Plant response rating, Bedstraw (bedstraw; [11]): 4
Bedstraw plant response rating (bedstraw; [12]): 8
Morningglory plant response rating (morningglory; [5]): 3
Morningglory plant response rating (morningglory; [6]): 0
Morningglory plant response rating (0 to 10 scale) (morningglory; [7]): 0
Morningglory plant response rating (morningglory; [8]): 0
Morningglory plant response rating (morningglory; [9]): 3
Morningglory plant response rating (morningglory; [10]): 3
Plant response rating, Morningglory (morningglory; [11]): 3
Morningglory plant response rating (morningglory; [12]): 4
Velvetleaf plant response rating (velvetleaf; [6]): 0
Velvetleaf plant response rating (0 to 10 scale) (velvetleaf; [13]): 1
Velvetleaf plant response rating (velvetleaf; [8]): 4
Velvetleaf plant response rating (velvetleaf; [9]): 4
Plant response rating, Velvetleaf (velvetleaf; [11]): 1
Velvetleaf plant response rating (velvetleaf; [12]): 1
Wild oats plant response rating (wild oat [1]; [6]): 4
Wild oats plant response rating (0 to 10 scale) (wild oat [1]; [13]): 4
Wild oats plant response rating (wild oat [1]; [8]): 4
Wild oats plant response rating (wild oat [1]; [9]): 6
Plant response rating, Wild oats (wild oat [1]; [11]): 3
Wild oats plant response rating (wild oat [1]; [12]): 3
Plant response rating, Wheat (winter) (winter wheat [2]; [14]): 85
Plant response rating, Wheat (winter) (winter wheat [2]; [15]): 65
Wheat (winter) plant response rating (winter wheat [2]): 40
Blackgrass plant response rating (0 to 100 scale) (blackgrass): 40
Plant response rating, Blackgrass (blackgrass; Rate 500 g/ha): 60
Plant response rating, Blackgrass (blackgrass; Rate 1000 g/ha): 100
Green foxtail plant response rating (0 to 100 scale) (green foxtail): 50
Plant response rating, Green foxtail (green foxtail; Rate 500 g/ha): 55
Plant response rating, Green foxtail (green foxtail; Rate 1000 g/ha): 65
I. Ryegrass plant response rating (0 to 100 scale) (Italian ryegrass): 60
Plant response rating, I. Ryegrass (Italian ryegrass; Rate 500 g/ha): 55
Plant response rating, I. Ryegrass (Italian ryegrass; Rate 1000 g/ha): 70
Wheat (winter) plant response rating (0 to 100 scale) (winter wheat [3]): 40
Plant response rating, Wheat (winter) (winter wheat [3]; Rate 500 g/ha): 50
Plant response rating, Wheat (winter) (winter wheat [3]; Rate 1000 g/ha): 70
Wild oat plant response rating (0 to 100 scale) (wild oat [4]): 55
Plant response rating, Wild oat (wild oat [4]; Rate 500 g/ha): 60
Plant response rating, Wild oat (wild oat [4]; Rate 1000 g/ha): 70
Barley (winter) plant response rating (0 to 100 scale) (winter barley): 20
Plant response rating, Barley (winter) (winter barley; Rate 500 g/ha): 55
Plant response rating, Barley (winter) (winter barley; Rate 1000 g/ha): 50

CC(C)N(C(=O)n1oc(=O)n([C@@H](C)c2ccccc2)c1=O)c1ccc(F)cc1 [Compound 167]
Bedstraw plant response rating (bedstraw; [5]): 0
Bedstraw plant response rating (bedstraw; [6]): 0
Bedstraw plant response rating (0 to 10 scale) (bedstraw; [7]): 0
Bedstraw plant response rating (bedstraw; [8]): 3
Bedstraw plant response rating (bedstraw; [9]): 5
Bedstraw plant response rating (bedstraw; [10]): 0
Plant response rating, Bedstraw (bedstraw; [11]): 8
Morningglory plant response rating (morningglory; [5]): 5
Morningglory plant response rating (morningglory; [6]): 0
Morningglory plant response rating (0 to 10 scale) (morningglory; [7]): 0
Morningglory plant response rating (morningglory; [8]): 0
Morningglory plant response rating (morningglory; [9]): 0
Morningglory plant response rating (morningglory; [10]): 2
Plant response rating, Morningglory (morningglory; [11]): 5
Morningglory plant response rating (morningglory; [12]): 8
Velvetleaf plant response rating (velvetleaf; [6]): 0
Velvetleaf plant response rating (0 to 10 scale) (velvetleaf; [13]): 0
Velvetleaf plant response rating (velvetleaf; [8]): 0
Velvetleaf plant response rating (velvetleaf; [9]): 3
Plant response rating, Velvetleaf (velvetleaf; [11]): 0
Velvetleaf plant response rating (velvetleaf; [12]): 2
Wild oats plant response rating (wild oat [1]; [6]): 0
Wild oats plant response rating (0 to 10 scale) (wild oat [1]; [13]): 0
Wild oats plant response rating (wild oat [1]; [8]): 3
Wild oats plant response rating (wild oat [1]; [9]): 6
Plant response rating, Wild oats (wild oat [1]; [11]): 0
Wild oats plant response rating (wild oat [1]; [12]): 0
Plant response rating, Wheat (winter) (winter wheat [2]; [14]): 50
Plant response rating, Wheat (winter) (winter wheat [2]; [15]): 40
Wheat (winter) plant response rating (winter wheat [2]): 30
Blackgrass plant response rating (0 to 100 scale) (blackgrass): 50
Plant response rating, Blackgrass (blackgrass; Rate 500 g/ha): 60
Plant response rating, Blackgrass (blackgrass; Rate 1000 g/ha): 80
Green foxtail plant response rating (0 to 100 scale) (green foxtail): 60
Plant response rating, Green foxtail (green foxtail; Rate 500 g/ha): 85
Plant response rating, Green foxtail (green foxtail; Rate 1000 g/ha): 100
I. Ryegrass plant response rating (0 to 100 scale) (Italian ryegrass): 30
Plant response rating, I. Ryegrass (Italian ryegrass; Rate 500 g/ha): 65
Plant response rating, I. Ryegrass (Italian ryegrass; Rate 1000 g/ha): 80
Wheat (winter) plant response rating (0 to 100 scale) (winter wheat [3]): 10
Plant response rating, Wheat (winter) (winter wheat [3]; Rate 500 g/ha): 20
Plant response rating, Wheat (winter) (winter wheat [3]; Rate 1000 g/ha): 30
Wild oat plant response rating (0 to 100 scale) (wild oat [4]): 30
Plant response rating, Wild oat (wild oat [4]; Rate 500 g/ha): 40
Plant response rating, Wild oat (wild oat [4]; Rate 1000 g/ha): 50
Barley (winter) plant response rating (0 to 100 scale) (winter barley): 40
Plant response rating, Barley (winter) (winter barley; Rate 500 g/ha): 40
Plant response rating, Barley (winter) (winter barley; Rate 1000 g/ha): 20
